Like-named read-outs stand apart in the source and are kept apart here.
Key:
MDA-MB-231 = assay: Cell proliferation inhibition assay (MTT); assay type: cell-based, human; conditions: Homo sapiens, read-out: Proliferative inhibitory activity MDA-MB-231 (IC50 class)
Method: (§1) The remaining cell lines were cultured in DMEM complete medium containing 10% fetal bovine serum (MV4-11 cells 20%), 100 U/ml penicillin, 100 μg/mL streptomycin at 5% CO2, and 37° C.
(§2) The cells were seeded in 96-well plates with 200 μL of cell suspension per well and incubated overnight in a cell culture medium with a cell concentration of 1˜2×10^4 cells/mL. The next day, the supernatant was discarded (the suspension cell was centrifuged before it) and the cells were treated with gradient concentrations of the test compound, respectively. At the same time, the drug-free negative control group and the equal volume of solvent control group, DMSO concentration of 0.1%, each dose group set up three wells, 37° C., 5% CO2 conditions. After 72 hours, add 20 μL of MTT reagent at a concentration of 5 mg/mL per well. After incubation for 2-4 h, the supernatant was discarded and 150 μL of DMSO was added to each well. […] Determine the absorbance (A) value (λ=570 nm, A value is proportional to the number of living cells), whichever is the average. […] The experiment was repeated at least 3 times. Experimental data were expressed as mean, data statistics using t test, P<0.05 for the difference was statistically significant. The inhibitory effects of the following compounds on cell proliferation were expressed as IC50 or inhibition rates.

MDA-MB-435 = assay: Cell proliferation inhibition assay (MTT); assay type: cell-based, human; conditions: Homo sapiens, read-out: Proliferative inhibitory activity MDA-MB-435 (IC50 class)
Method: as §1, §2

Row | SMILES | IC50 (MDA-MB-231; MDA-MB-231, MTT, 72 hours) [µM] | IC50 (MDA-MB-435; MDA-MB-435, MTT, 72 hours) [µM] | IC50 (MDA-MB-231; MDA-MB-231, 72 h) [µM] | IC50 (MDA-MB-435; MDA-MB-435, 72 h) [µM]
1 | Cc1ccc(NC(=O)c2ccc(CN3CCN(C)CC3)cc2)cc1C#Cc1nn(C(C)C)c2ncnc(N)c12 [Compound 1] | 0.1 to 0.5 | 0.1 to 0.5 |  | 
2 | CCn1nc(C#Cc2cc(C(=O)Nc3ccc(CN4CCN(C)CC4)c(C(F)(F)F)c3)ccc2C)c2c(N)ncnc21 [Compound 2] | < 0.1 | < 0.1 |  | 
3 | CC(=O)Nc1ncnc2c1c(C#Cc1cc(C(=O)Nc3ccc(CN4CCN(C)CC4)c(C(F)(F)F)c3)ccc1C)nn2C(C)C [Compound 15] | 0.1 to 0.5 | 0.1 to 0.5 |  | 
4 | Cc1ccc(C(=O)Nc2ccc(CN3CCN(C)CC3)c(C(F)(F)F)c2)cc1C#Cc1nn([C@@H]2CCOC2)c2ncnc(N)c12 [Compound 20] |  |  | < 0.1 | < 0.1
5 | Cc1ccc(C(=O)Nc2ccc(CN3CCN(C)CC3)c(C(F)(F)F)c2)cc1C#Cc1nn([C@H]2CCOC2)c2ncnc(N)c12 [Compound 21] |  |  | < 0.1 | < 0.1
6 | Cc1ccc(NC(=O)c2ccc(C)c(C#Cc3nn(C(C)C)c4ncnc(N)c34)c2)cc1 [Compound 22] | 0.1 to 0.5 | > 1 |  | 
7 | CCn1nc(C#Cc2cc(C(=O)Nc3ccc(CN4CCN(C)CC4)c(C(F)(F)F)c3)ccc2F)c2c(N)ncnc21 [Compound 23] | > 1 | 0.1 to 0.5 |  | 
8 | CCn1nc(C#Cc2cc(C(=O)Nc3ccc(CN4CCN(C)CC4)c(C(F)(F)F)c3)ccc2C(C)C)c2c(N)ncnc21 [Compound 27] | > 1 | > 1 |  | 
9 | Cc1ccc(NC(=O)c2ccc(CN3CCN(C)CC3)c(C(F)(F)F)c2)cc1C#Cc1nn(C)c2ncnc(N)c12 [Compound 28] | < 0.1 | < 0.1 |  | 
10 | Cc1ccc(C(=O)Nc2cccc(C(F)(F)F)c2)cc1C#Cc1nn(C2CCN(C)CC2)c2ncnc(N)c12 [Compound 32] | < 0.1 | 0.1 to 0.5 |  | 
11 | CN1CCC(n2nc(C#Cc3cccc(NC(=O)c4cccc(C(F)(F)F)c4)c3)c3c(N)ncnc32)CC1 [Compound 33] | 0.5 to 1 | 0.1 to 0.5 |  | 
12 | CN1CCC(n2nc(C#Cc3cc(NC(=O)c4cccc(C(F)(F)F)c4)ccc3Cl)c3c(N)ncnc32)CC1 [Compound 34] | 0.5 to 1 | 0.1 to 0.5 |  | 
13 | Cc1ccc(NC(=O)Nc2cccc(C(F)(F)F)c2)cc1C#Cc1nn(C2CCN(C)CC2)c2ncnc(N)c12 [Compound 35] | 0.5 to 1 | < 0.1 |  | 
14 | CN1CCC(n2nc(C#Cc3cc(NC(=O)Nc4cccc(C(F)(F)F)c4)ccc3Cl)c3c(N)ncnc32)CC1 [Compound 36] | 0.5 to 1 | 0.1 to 0.5 |  | 
15 | CN1CCC(n2nc(C#Cc3cccc(C(=O)Nc4cccc(C(F)(F)F)c4)c3)c3c(N)ncnc32)CC1 [Compound 37] | > 1 | 0.1 to 0.5 |  | 
16 | CN1CCC(n2nc(C#Cc3cc(C(=O)Nc4cccc(C(F)(F)F)c4)ccc3Cl)c3c(N)ncnc32)CC1 [Compound 38] | 0.5 to 1 | 0.1 to 0.5 |  | 
17 | CN1CCC(n2nc(C#Cc3cccc(NC(=O)Nc4cccc(C(F)(F)F)c4)c3)c3c(N)ncnc32)CC1 [Compound 39] | > 1 | 0.5 to 1 |  | 
18 | Cc1ccc(NC(=O)c2cccc(C(C)(C)C)c2)cc1C#Cc1nn(C2CCN(C)CC2)c2ncnc(N)c12 [Compound 40] | < 0.1 | < 0.1 |  | 
19 | Cc1ccc(NC(=O)c2ccc(C(F)(F)F)cc2)cc1C#Cc1nn(C2CCN(C)CC2)c2ncnc(N)c12 [Compound 41] | 0.5 to 1 | > 1 |  | 

Row | SMILES | IC50 (MDA-MB-231; MDA-MB-231, MTT, 72 hours) [µM] | IC50 (MDA-MB-435; MDA-MB-435, MTT, 72 hours) [µM] | IC50 (MDA-MB-231; MDA-MB-231, 72 h) [µM] | IC50 (MDA-MB-435; MDA-MB-435, 72 h) [µM]
20 | Cc1ccc(NC(=O)c2ccc(C)c(C(F)(F)F)c2)cc1C#Cc1nn(C2CCN(C)CC2)c2ncnc(N)c12 [Compound 42] | < 0.1 | < 0.1 |  | 
21 | COc1ccc(C(=O)Nc2ccc(C)c(C#Cc3nn(C4CCN(C)CC4)c4ncnc(N)c34)c2)cc1 [Compound 43] | > 1 | > 1 |  | 
22 | COc1cccc(C(=O)Nc2ccc(C)c(C#Cc3nn(C4CCN(C)CC4)c4ncnc(N)c34)c2)c1 [Compound 44] | 0.1 to 0.5 | 0.1 to 0.5 |  | 
23 | Cc1ccc(NC(=O)c2cccc(F)c2)cc1C#Cc1nn(C2CCN(C)CC2)c2ncnc(N)c12 [Compound 45] | 0.5 to 1 | > 1 |  | 
24 | Cc1ccc(NC(=O)c2ccc(F)c(Cl)c2)cc1C#Cc1nn(C2CCN(C)CC2)c2ncnc(N)c12 [Compound 46] | 0.5 to 1 | > 1 |  | 
25 | Cc1ccc(NC(=O)c2ccc(F)c(C(F)(F)F)c2)cc1C#Cc1nn(C2CCN(C)CC2)c2ncnc(N)c12 [Compound 47] | 0.5 to 1 | 0.5 to 1 |  | 
26 | Cc1ccc(NC(=O)c2cccc(C(F)(F)F)c2F)cc1C#Cc1nn(C2CCN(C)CC2)c2ncnc(N)c12 [Compound 48] | 0.1 to 0.5 | 0.1 to 0.5 |  | 
27 | Cc1ccc(NC(=O)c2cccc(Cl)c2)cc1C#Cc1nn(C2CCN(C)CC2)c2ncnc(N)c12 [Compound 49] | < 0.1 | 0.5 to 1 |  | 
28 | Cc1ccc(NC(=O)c2cc(C(F)(F)F)ccc2F)cc1C#Cc1nn(C2CCN(C)CC2)c2ncnc(N)c12 [Compound 50] | 0.1 to 0.5 | 0.1 to 0.5 |  | 
29 | Cc1ccc(NC(=O)c2cc(F)cc(C(F)(F)F)c2)cc1C#Cc1nn(C2CCN(C)CC2)c2ncnc(N)c12 [Compound 51] | 0.5 to 1 | > 1 |  | 
30 | Cc1ccc(NC(=O)c2cccc(OC(F)(F)F)c2)cc1C#Cc1nn(C2CCN(C)CC2)c2ncnc(N)c12 [Compound 52] | < 0.1 | < 0.1 |  | 
31 | Cc1ccc(NC(=O)c2ccc(Cl)cc2)cc1C#Cc1nn(C2CCN(C)CC2)c2ncnc(N)c12 [Compound 53] | < 0.1 | 0.1 to 0.5 |  | 
32 | Cc1ccc(NC(=O)c2cc(C(F)(F)F)cc(C(F)(F)F)c2)cc1C#Cc1nn(C2CCN(C)CC2)c2ncnc(N)c12 [Compound 54] | < 0.1 | < 0.1 |  | 
33 | Cc1cccc(C(=O)Nc2ccc(C)c(C#Cc3nn(C4CCN(C)CC4)c4ncnc(N)c34)c2)c1 [Compound 55] | 0.1 to 0.5 | 0.1 to 0.5 |  | 
34 | Cc1ccc(NC(=O)c2cc(C(F)(F)F)cc(Cl)c2F)cc1C#Cc1nn(C2CCN(C)CC2)c2ncnc(N)c12 [Compound 56] | > 1 | > 1 |  | 
35 | Cc1ccc(NC(=O)c2cccc(C(F)(F)F)n2)cc1C#Cc1nn(C2CCN(C)CC2)c2ncnc(N)c12 [Compound 57] | 0.5 to 1 | > 1 |  | 
36 | Cc1ccc(NC(=O)c2cncc(C(F)(F)F)c2)cc1C#Cc1nn(C2CCN(C)CC2)c2ncnc(N)c12 [Compound 58] | 0.1 to 0.5 | < 0.1 |  | 
37 | Cc1ccc(NC(=O)c2ccnc(C(F)(F)F)c2)cc1C#Cc1nn(C2CCN(C)CC2)c2ncnc(N)c12 [Compound 59] | 0.1 to 0.5 | 0.1 to 0.5 |  | 
38 | Cc1ccc(NC(=O)c2ccc(Cl)c(Cl)c2)cc1C#Cc1nn(C2CCN(C)CC2)c2ncnc(N)c12 [Compound 60] | 0.1 to 0.5 | 0.5 to 1 |  | 

Row | SMILES | IC50 (MDA-MB-231; MDA-MB-231, MTT, 72 hours) [µM] | IC50 (MDA-MB-435; MDA-MB-435, MTT, 72 hours) [µM] | IC50 (MDA-MB-231; MDA-MB-231, 72 h) [µM] | IC50 (MDA-MB-435; MDA-MB-435, 72 h) [µM]
39 | Cc1ccc(C(=O)Nc2cc(C(C)(C)C)nn2C)cc1C#Cc1nn(C2CCN(C)CC2)c2ncnc(N)c12 [Compound 61] | 0.1 to 0.5 | 0.1 to 0.5 |  | 
40 | Cc1ccc(C(=O)Nc2cc(C(C)(C)C)on2)cc1C#Cc1nn(C2CCN(C)CC2)c2ncnc(N)c12 [Compound 62] | < 0.1 | < 0.1 |  | 
41 | Cc1ccc(NC(=O)c2cc(C(C)(C)C)nn2C)cc1C#Cc1nn(C2CCN(C)CC2)c2ncnc(N)c12 [Compound 63] | 0.1 to 0.5 | < 0.1 |  | 
42 | Cc1ccc(NC(=O)c2cc(C(C)(C)C)on2)cc1C#Cc1nn(C2CCN(C)CC2)c2ncnc(N)c12 [Compound 64] | 0.1 to 0.5 | < 0.1 |  | 
43 | Cc1ccc(NC(=O)c2nc(C(C)(C)C)cs2)cc1C#Cc1nn(C2CCN(C)CC2)c2ncnc(N)c12 [Compound 65] | < 0.1 | < 0.1 |  | 
44 | Cc1ccc(NC(=O)c2cc(Cl)cc(C(F)(F)F)c2)cc1C#Cc1nn(C2CCN(C)CC2)c2ncnc(N)c12 [Compound 66] | < 0.1 | < 0.1 |  | 
45 | Cc1ccc(NC(=O)c2ccc(Cl)c(C(F)(F)F)c2)cc1C#Cc1nn(C2CCN(C)CC2)c2ncnc(N)c12 [Compound 67] | < 0.1 | < 0.1 |  | 
46 | Cc1ccc(NC(=O)c2cc(Cl)cc(Cl)c2)cc1C#Cc1nn(C2CCN(C)CC2)c2ncnc(N)c12 [Compound 68] | 0.1 to 0.5 | 0.1 to 0.5 |  | 
47 | Cc1ccc(NC(=O)c2ccc(Cl)c(C(F)(F)F)c2)cc1C#Cc1nn(CC2CCN(C)C2)c2ncnc(N)c12 (stereo not shown) [Compound 69] | < 0.1 | > 1 |  | 
48 | Cc1ccc(NC(=O)c2ccc(Cl)c(C(F)(F)F)c2)cc1C#Cc1nn(C2CCN(C(=O)[C@H](C)O)CC2)c2ncnc(N)c12 [Compound 70] | < 0.1 | 0.5 to 1 |  | 
49 | Cc1ccc(NC(=O)c2ccc(Cl)c(C(F)(F)F)c2)cc1C#Cc1nn(C2CCN(C(=O)[C@@H](C)O)CC2)c2ncnc(N)c12 [Compound 71] | < 0.1 | < 0.1 |  | 
50 | Cc1ccc(NC(=O)c2ccc(Cl)c(C(F)(F)F)c2)cc1C#Cc1nn([C@@H]2CCN(C(=O)[C@H](C)O)C2)c2ncnc(N)c12 [Compound 72] | < 0.1 | > 1 |  | 
51 | Cc1ccc(NC(=O)c2ccc(Cl)c(C(F)(F)F)c2)cc1C#Cc1nn([C@@H]2CCN(C(=O)[C@@H](C)O)C2)c2ncnc(N)c12 [Compound 73] | < 0.1 | > 1 |  | 
52 | Cc1ccc(NC(=O)c2ccc(Cl)c(C(F)(F)F)c2)cc1C#Cc1nn(C2CCC(O)CC2)c2ncnc(N)c12 (stereo not shown) [Compound 74] | < 0.1 | < 0.1 |  | 
53 | Cc1ccc(NC(=O)c2ccc(Cl)c(C(F)(F)F)c2)cc1C#Cc1nn(CC2CCN(S(C)(=O)=O)CC2)c2ncnc(N)c12 [Compound 75] | 0.1 to 0.5 | > 1 |  | 
54 | Cc1ccc(NC(=O)c2ccc(Cl)c(C(F)(F)F)c2)cc1C#Cc1nn(CC2CCN(S(C)(=O)=O)C2)c2ncnc(N)c12 (stereo not shown) [Compound 76] | < 0.1 | 0.1 to 0.5 |  | 
55 | Cc1ccc(NC(=O)c2ccc(Cl)c(C(F)(F)F)c2)cc1C#Cc1nn(C2CCC2)c2ncnc(N)c12 [Compound 77] | 0.5 to 1 | > 1 |  | 
56 | Cc1ccc(NC(=O)c2ccc(Cl)c(C(F)(F)F)c2)cc1C#Cc1nn(C2CCCC2)c2ncnc(N)c12 [Compound 78] | < 0.1 | 0.5 to 1 |  | 

Reference: patent US10266537B2, “3-acetylenyl-pyrazole-pyrimidine derivative, and preparation method therefor and uses thereof” (Si Chuan University, priority 2015, dated 2019)
